Data reported in ChEMBL document CHEMBL1201861, “Genomics of Drug Sensitity in Cancer screening data, Wellcome Trust Sanger Institute”.

Key:
Test in all cases: cells
Type in all cases: functional, cell-based
Conditions in all cases: Homo sapiens
COLO-800 = test system: COLO-800;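 also: growth inhibition of COLO-800 cells, read out with a cell viability assay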
Description: SANGER: Inhibition of human COLO-800 cell growth in a cell viability assay.

COR-L88 = test system: COR-L88;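 also: growth inhibition of COR-L88 cells, read out with a cell viability assay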
Description: SANGER: Inhibition of human COR-L88 cell growth in a cell viability assay.

D-263MG = test system: D-263MG
Description: SANGER: Inhibition of human D-263MG cell growth in a cell viability assay.

DMS-79 = test system: DMS-79;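 also: growth inhibition measured with a cell viability assay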
Description: SANGER: Inhibition of human DMS-79 cell growth in a cell viability assay.

DSH1 = test system: DSH1;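 also: growth inhibition of human DSH1 cells, measured with a cell viability readout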
Description: SANGER: Inhibition of human DSH1 cell growth in a cell viability assay.

EM-2 = test system: EM-2;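 also: growth inhibition of EM-2 cells, read out with a cell viability assay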
Description: SANGER: Inhibition of human EM-2 cell growth in a cell viability assay.

ES8 = test system: ES8;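 also: growth inhibition of human ES8 cells, read out with a cell viability assay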
Description: SANGER: Inhibition of human ES8 cell growth in a cell viability assay.

EW-3 = test system: EW-3;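 also: cell viability assay read-out, IC50 reflects inhibition of growth of the EW-3 cells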
Description: SANGER: Inhibition of human EW-3 cell growth in a cell viability assay.

GAK = test system: GAK;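 also: cell growth inhibition read out by a cell viability assay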
Description: SANGER: Inhibition of human GAK cell growth in a cell viability assay.

GI-ME-N = test system: GI-ME-N;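 also: growth inhibition of human GI-ME-N cells, read out with a cell viability assay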
Description: SANGER: Inhibition of human GI-ME-N cell growth in a cell viability assay.

GR-ST = test system: GR-ST
Description: SANGER: Inhibition of human GR-ST cell growth in a cell viability assay.

HAL-01 = test system: HAL-01;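 also: growth inhibition of human HAL-01 cells, read out with a cell viability assay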
Description: SANGER: Inhibition of human HAL-01 cell growth in a cell viability assay.

HCC2218 = test system: HCC2218;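 also: cell viability assay read-out, with IC50 given as the concentration that inhibits growth of the cell line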
Description: SANGER: Inhibition of human HCC2218 cell growth in a cell viability assay.

HL-60 = test system: HL-60;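 also: growth inhibition of human HL-60 cells, read out with a cell viability assay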
Description: SANGER: Inhibition of human HL-60 cell growth in a cell viability assay.

HOP-62 = test system: HOP-62;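 also: cell growth inhibition determined with a viability assay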
Description: SANGER: Inhibition of human HOP-62 cell growth in a cell viability assay.

IST-MEL1 = test system: IST-MEL1;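 also: growth inhibition of the cell line, read out with a cell viability assay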
Description: SANGER: Inhibition of human IST-MEL1 cell growth in a cell viability assay.

J-RT3-T3-5 = test system: J-RT3-T3-5;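 also: cell viability assay measuring growth inhibition of human J-RT3-T3-5 cells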
Description: SANGER: Inhibition of human J-RT3-T3-5 cell growth in a cell viability assay.

JAR = test system: JAR;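 also: growth inhibition of human JAR cells determined with a cell viability assay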
Description: SANGER: Inhibition of human JAR cell growth in a cell viability assay.

K5 = test system: K5
Description: SANGER: Inhibition of human K5 cell growth in a cell viability assay.

KALS-1 = test system: KALS-1;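 also: growth inhibition of KALS-1 cells, determined with a cell viability assay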
Description: SANGER: Inhibition of human KALS-1 cell growth in a cell viability assay.

KINGS-1 = test system: KINGS-1;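 also: cell viability assay measuring suppression of KINGS-1 cell growth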
Description: SANGER: Inhibition of human KINGS-1 cell growth in a cell viability assay.

KMOE-2 = test system: KMOE-2;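 also: growth inhibition of human KMOE-2 cells, read out with a cell viability assay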
Description: SANGER: Inhibition of human KMOE-2 cell growth in a cell viability assay.

KS-1 = test system: KS-1;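 also: growth inhibition of KS-1 cells, read out with a cell viability assay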
Description: SANGER: Inhibition of human KS-1 cell growth in a cell viability assay.

KU812 cell line = test system: KU812 cell line;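 also: growth inhibition of KU812 cells, read out with a cell viability assay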
Description: SANGER: Inhibition of human KU812 cell growth in a cell viability assay.

KY821 = test system: KY821;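 also: growth inhibition of human KY821 cells, read out by a cell viability assay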
Description: SANGER: Inhibition of human KY821 cell growth in a cell viability assay.

LB373-MEL-D = test system: LB373-MEL-D;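 also: growth inhibition of the cell line, read out in a cell viability assay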
Description: SANGER: Inhibition of human LB373-MEL-D cell growth in a cell viability assay.

LB771-HNC = test system: LB771-HNC;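 also: growth inhibition of LB771-HNC human cells, read out with a cell viability assay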
Description: SANGER: Inhibition of human LB771-HNC cell growth in a cell viability assay.

LNCaP-Clone-FGC = test system: LNCaP-Clone-FGC
Description: SANGER: Inhibition of human LNCaP-Clone-FGC cell growth in a cell viability assay.

MHH-NB-11 = test system: MHH-NB-11;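 also: growth inhibition of human MHH-NB-11 cells, read out by a cell viability assay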
Description: SANGER: Inhibition of human MHH-NB-11 cell growth in a cell viability assay.

MLMA = test system: MLMA;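 also: growth inhibition of MLMA cells (human), determined through a cell viability readout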
Description: SANGER: Inhibition of human MLMA cell growth in a cell viability assay.

MOLT-16 = test system: MOLT-16;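 also: growth inhibition of human MOLT-16 cells, read out with a cell viability assay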
Description: SANGER: Inhibition of human MOLT-16 cell growth in a cell viability assay.

MOLT-4 = test system: MOLT-4;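 also: growth inhibition of MOLT-4 cells, determined with a cell viability readout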
Description: SANGER: Inhibition of human MOLT-4 cell growth in a cell viability assay.

MPP-89 = test system: MPP-89;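 also: growth inhibition of human MPP-89 cells, read out with a cell viability assay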
Description: SANGER: Inhibition of human MPP-89 cell growth in a cell viability assay.

MS-1 = test system: MS-1;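 also: growth inhibition of MS-1 cells, read out by cell viability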
Description: SANGER: Inhibition of human MS-1 cell growth in a cell viability assay.

MSTO-211H = test system: MSTO-211H
Description: SANGER: Inhibition of human MSTO-211H cell growth in a cell viability assay.

NB10 = test system: NB10;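 also: growth inhibition of NB10 cells, read out by a cell viability assay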
Description: SANGER: Inhibition of human NB10 cell growth in a cell viability assay.

NB13 = test system: NB13;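 also: cell viability readout measuring growth inhibition of human NB13 cells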
Description: SANGER: Inhibition of human NB13 cell growth in a cell viability assay.

NCI-H1304 = test system: NCI-H1304;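 also: growth inhibition of the cancer cell line, measured in a cell viability assay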
Description: SANGER: Inhibition of human NCI-H1304 cell growth in a cell viability assay.

NCI-H1648 = test system: NCI-H1648;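 also: cell viability assay measuring inhibition of NCI-H1648 cell growth, from the Sanger screening data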
Description: SANGER: Inhibition of human NCI-H1648 cell growth in a cell viability assay.

NCI-H1650 = test system: NCI-H1650;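 also: growth inhibition of human NCI-H1650 cells measured by a cell viability assay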
Description: SANGER: Inhibition of human NCI-H1650 cell growth in a cell viability assay.

NCI-H2126 = test system: NCI-H2126;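 also: growth inhibition of the cancer cell line, determined with a cell viability readout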
Description: SANGER: Inhibition of human NCI-H2126 cell growth in a cell viability assay.

NCI-H510A = test system: NCI-H510A;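 also: growth inhibition of NCI-H510A cells, read out with a cell viability assay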
Description: SANGER: Inhibition of human NCI-H510A cell growth in a cell viability assay.

NCI-H747 = test system: NCI-H747;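 also: growth inhibition of human NCI-H747 cells, read out by a cell viability assay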
Description: SANGER: Inhibition of human NCI-H747 cell growth in a cell viability assay.

NCI-H82 = test system: NCI-H82;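 also: growth inhibition of NCI-H82 cells, measured with a cell viability readout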
Description: SANGER: Inhibition of human NCI-H82 cell growth in a cell viability assay.

SNU1 = test system: SNU1;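 also: growth inhibition of human NCI-SNU-1 cells, measured with a cell viability assay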
Description: SANGER: Inhibition of human NCI-SNU-1 cell growth in a cell viability assay.

SNU-5 = test system: SNU-5;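 also: cell viability readout used to measure growth inhibition in human NCI-SNU-5 cells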
Description: SANGER: Inhibition of human NCI-SNU-5 cell growth in a cell viability assay.

OCUB-M = test system: OCUB-M;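 also: growth inhibition of the cancer cell line, read out through a cell viability assay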
Description: SANGER: Inhibition of human OCUB-M cell growth in a cell viability assay.

OS-RC-2 = test system: OS-RC-2;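 also: growth inhibition of human OS-RC-2 cells, measured by a cell viability assay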
Description: SANGER: Inhibition of human OS-RC-2 cell growth in a cell viability assay.

SCC-15 = test system: SCC-15;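 also: growth inhibition of SCC-15 cells, read out with a cell viability assay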
Description: SANGER: Inhibition of human SCC-15 cell growth in a cell viability assay.

SF-539 = test system: SF-539;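 also: Read-out is a cell viability assay, with IC50 reflecting inhibition of cell growth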
Description: SANGER: Inhibition of human SF539 cell growth in a cell viability assay.

SK-NEP-1 = test system: SK-NEP-1;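 also: growth inhibition of human SK-NEP-1 cells, read out by a cell viability assay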
Description: SANGER: Inhibition of human SK-NEP-1 cell growth in a cell viability assay.

SK-UT-1 = test system: SK-UT-1;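 also: growth inhibition of SK-UT-1 cells, measured by a cell viability assay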
Description: SANGER: Inhibition of human SK-UT-1 cell growth in a cell viability assay.

8-MG-BA = test system: 8-MG-BA;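 also: growth inhibition of 8-MG-BA cells, read out with a cell viability assay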
Description: SANGER: Inhibition of human 8-MG-BA cell growth in a cell viability assay.

A3-KAW = test system: A3-KAW;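 also: growth inhibition of human A3-KAW cells, read out with a cell viability assay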
Description: SANGER: Inhibition of human A3-KAW cell growth in a cell viability assay.

ALL-PO = test system: ALL-PO
Description: SANGER: Inhibition of human ALL-PO cell growth in a cell viability assay.

AM-38 = test system: AM-38
Description: SANGER: Inhibition of human AM-38 cell growth in a cell viability assay.

BT-474 = test system: BT-474
Description: SANGER: Inhibition of human BT-474 cell growth in a cell viability assay.

BV-173 = test system: BV-173
Description: SANGER: Inhibition of human BV-173 cell growth in a cell viability assay.

Becker = test system: Becker
Description: SANGER: Inhibition of human Becker cell growth in a cell viability assay.

C8166 = test system: C8166
Description: SANGER: Inhibition of human C8166 cell growth in a cell viability assay.

TE-5 = test system: TE-5
Description: SANGER: Inhibition of human TE-5 cell growth in a cell viability assay.

TE-9 = test system: TE-9
Description: SANGER: Inhibition of human TE-9 cell growth in a cell viability assay.

U-266 = test system: U-266
Description: SANGER: Inhibition of human U-266 cell growth in a cell viability assay.

VA-ES-BJ = test system: VA-ES-BJ
Description: SANGER: Inhibition of human VA-ES-BJ cell growth in a cell viability assay.

no-10 = test system: no-10
Description: SANGER: Inhibition of human no-10 cell growth in a cell viability assay.

NCI-H1299 = test system: NCI-H1299
Description: SANGER: Inhibition of human NCI-H1299 cell growth in a cell viability assay.

## Cc1n[nH]c2ccc(-c3cncc(OC[C@@H](N)Cc4c[nH]c5ccccc45)c3)cc12 [A-443654]
COLO-800
  IC50: > 1020 nM
COR-L88
  IC50: 738 nM
D-263MG
  IC50: > 1020 nM
DMS-79
  IC50: 750 nM
DSH1
  IC50: 361 nM
EM-2
  IC50: 583 nM
ES8
  IC50: 151 nM
EW-3
  IC50: > 1020 nM
GAK
  IC50: > 1020 nM
GI-ME-N
  IC50: 278 nM
GR-ST
  IC50: 448 nM
HAL-01
  IC50: > 1020 nM
HCC2218
  IC50: 266 nM
HL-60
  IC50: 500 nM
HOP-62
  IC50: 140 nM
IST-MEL1
  IC50: 447 nM
J-RT3-T3-5
  IC50: 185 nM
JAR
  IC50: 156 nM
K5
  IC50: 428 nM
KALS-1
  IC50: 203 nM
KINGS-1
  IC50: 292 nM
KMOE-2
  IC50: > 1020 nM
KS-1
  IC50: 53.5 nM
KU812 cell line
  IC50: 96.5 nM
KY821
  IC50: 246 nM
LB373-MEL-D
  IC50: 531 nM
LB771-HNC
  IC50: 222 nM
LNCaP-Clone-FGC
  IC50: > 1020 nM
MHH-NB-11
  IC50: > 1020 nM
MLMA
  IC50: 447 nM
MOLT-16
  IC50: 83.7 nM
MOLT-4
  IC50: 131 nM
MPP-89
  IC50: 485 nM
MS-1
  IC50: > 1020 nM
MSTO-211H
  IC50: > 1020 nM
NB10
  IC50: > 1020 nM
NB13
  IC50: 332 nM
NCI-H1304
  IC50: 163 nM
NCI-H1648
  IC50: 183 nM
NCI-H1650
  IC50: > 1020 nM
NCI-H2126
  IC50: 309 nM
NCI-H510A
  IC50: 229 nM
NCI-H747
  IC50: 82.5 nM
NCI-H82
  IC50: 164 nM
SNU1
  IC50: 400 nM
SNU-5
  IC50: > 1020 nM
OCUB-M
  IC50: 25.7 nM
OS-RC-2
  IC50: 175 nM
SCC-15
  IC50: > 1020 nM
SF-539
  IC50: > 1020 nM
SK-NEP-1
  IC50: 519 nM
SK-UT-1
  IC50: 81.4 nM
8-MG-BA
  IC50: 163 nM
A3-KAW
  IC50: 196 nM
ALL-PO
  IC50: 797 nM
AM-38
  IC50: > 1020 nM
BT-474
  IC50: 584 nM
BV-173
  IC50: 269 nM
Becker
  IC50: 303 nM
C8166
  IC50: > 1020 nM
TE-5
  IC50: 169 nM
TE-9
  IC50: 389 nM
U-266
  IC50: > 1020 nM
VA-ES-BJ
  IC50: 129 nM
no-10
  IC50: 129 nM

## CC[C@@]1(O)C(=O)OCc2c1cc1n(c2=O)Cc2cc3ccccc3nc2-1 [CAMPTOTHECIN]
COLO-800
  IC50: 0.428 nM
COR-L88
  IC50: 40.9 nM
D-263MG
  IC50: 9.11 nM
DMS-79
  IC50: 31.8 nM
DSH1
  IC50: 15.8 nM
EM-2
  IC50: 4.08 nM
ES8
  IC50: 0.796 nM
EW-3
  IC50: 0.319 nM
GI-ME-N
  IC50: 33.9 nM
GR-ST
  IC50: 0.701 nM
HAL-01
  IC50: 2.55 nM
HCC2218
  IC50: 55.5 nM
HL-60
  IC50: 3.73 nM
HOP-62
  IC50: > 100 nM
IST-MEL1
  IC50: 3.81 nM
J-RT3-T3-5
  IC50: 2.58 nM
JAR
  IC50: 14.5 nM
K5
  IC50: 3.2 nM
KALS-1
  IC50: 69.9 nM
KMOE-2
  IC50: 11.3 nM
KS-1
  IC50: 57.9 nM
KU812 cell line
  IC50: 8.36 nM
KY821
  IC50: 8.12 nM
LB373-MEL-D
  IC50: 91.2 nM
LNCaP-Clone-FGC
  IC50: 31 nM
MHH-NB-11
  IC50: 0.842 nM
MLMA
  IC50: 8.14 nM
MOLT-16
  IC50: 0.732 nM
MOLT-4
  IC50: 1.62 nM
MPP-89
  IC50: 27.2 nM
MS-1
  IC50: 2.77 nM
MSTO-211H
  IC50: 8.24 nM
NB10
  IC50: 0.614 nM
NB13
  IC50: 28.8 nM
NCI-H1299
  IC50: 9.43 nM
NCI-H1304
  IC50: 59.3 nM
NCI-H1648
  IC50: 38.1 nM
NCI-H510A
  IC50: 1.7 nM
NCI-H82
  IC50: > 100 nM
SNU1
  IC50: 1.09 nM
SNU-5
  IC50: 42.7 nM
OCUB-M
  IC50: 38.1 nM
OS-RC-2
  IC50: 9.97 nM
SCC-15
  IC50: 18.6 nM
SF-539
  IC50: 9.01 nM
SK-NEP-1
  IC50: 1.23 nM
SK-UT-1
  IC50: 3.07 nM
8-MG-BA
  IC50: 1.5 nM
A3-KAW
  IC50: 1.67 nM
ALL-PO
  IC50: 1.53 nM
AM-38
  IC50: 4.41 nM
BT-474
  IC50: > 100 nM
BV-173
  IC50: 2.38 nM
Becker
  IC50: 23.3 nM
C8166
  IC50: 41.5 nM
TE-5
  IC50: 7.38 nM
TE-9
  IC50: 23.7 nM
U-266
  IC50: 69.5 nM
VA-ES-BJ
  IC50: 3.47 nM
